According to patent US11767302B2, “Reagents and methods for tetrazine synthesis” (University of Delaware, priority 2020, dated 2023):
“And” between values parts separate entries of the source, which are not always exact repeats. Equal values may be shown once. Each block holds one compound with its values, some of them ahead of it.

Assays:
[1] = Stopped-flow kinetic analysis of tetrazines with eq-5-hydroxy-trans-cyclooctene in PBS buffer at 25° C.; conditions: for k2, second order rate constant / kobs: PBS pH 7.4, 25° C.; for k2, second order rate constant: linear regression of kobs; for kobs: 0.025 mM tetrazine; for krel: relative to 5b, PBS, 25° C.
Description: Solutions (5 mL) of tetrazines 5b, 6c, 5l, 6a and 4f (0.050 mM) were prepared in PBS buffer (pH 7.4). Solutions (10 mL) of eq-5-hydroxy-trans-cyclooctene (0.50, 0.60, 0.70, 0.80 mM) were prepared in PBS buffer (pH 7.4). The reactions between tetrazines and trans-cyclooctene were measured under pseudo-first order conditions using SX 18MV-R stopped-flow spectrophotometer (Applied Photophysics Ltd.). Each solution of tetrazine and trans-cyclooctene were injected in equal volumes via 3 mL syringes into the stopped-flow instrument at 25° C., resulting in final concentration of 0.025 mM of tetrazines and 0.25, 0.30, 0.35, 0.40 mM trans-cyclooctene. The reaction was monitored by the decay of absorbance associated with the tetrazines (5b at 263 nm, 6c at 268 nm, 5l at 274 nm, 6a at 296 nm, 4f at 266 nm). Reaction were repeated in triplicate. With Prism software, an observed rate constant, kobs, was obtained by nonlinear regression. Second order rate constants, k2, were calculated by linear regression between kobs and final concentration of trans-cyclooctene.

[2] = Experimental log P; assay type: physicochemical
[3] = Tetrazine stability in PBS buffer in ambient light at 25° C.; assay type: physicochemical; conditions: PBS buffer pH 7.4, ambient light, day 0-5
Description: Solutions (3 mL) of tetrazine 5b, 5l and 6c (400 μM) were prepared in PBS buffer (pH 7.4) in vials and stored in ambient light at 25° C. Tetrazine concentrations were determined by recording the absorbance at 518 nm (6c) and 520 nm (5b and 5l) in cuvettes in day 0, 1, 3 and 5. A solution of 6a (50 μM) was prepared in PBS buffer (pH 7.4) in vials and stored in ambient light at room temperature. Tetrazine concentration was determined by recording the absorbance at 520 nm in cuvettes at day 0, 1, 3 and 5.

[4] = biological target: T1, human MAGL enzyme (Homo sapiens, UniProt Q99685); experiment: MAGL in vitro activity assay (7-HCA substrate, fluorescence); assay type: biochemical; conditions: human MAGL pre-treated 30 min at room temperature, 7-HCA substrate 1 h; read-out: IC50, inhibition of MAGL activity in vitro
T1 sequence (Q99685 1-303): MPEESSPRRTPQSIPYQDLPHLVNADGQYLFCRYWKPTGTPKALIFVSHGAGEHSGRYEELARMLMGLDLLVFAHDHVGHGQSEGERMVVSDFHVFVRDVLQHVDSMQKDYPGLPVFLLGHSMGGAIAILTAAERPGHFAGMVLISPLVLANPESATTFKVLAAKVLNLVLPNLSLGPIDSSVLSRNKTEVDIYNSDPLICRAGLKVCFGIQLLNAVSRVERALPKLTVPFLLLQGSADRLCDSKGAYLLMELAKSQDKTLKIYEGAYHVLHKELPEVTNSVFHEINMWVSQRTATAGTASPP
Description: MAGL in vitro activity assay. The MAGL in vitro activity assay was performed based on a reported protocol. Briefly, human MAGL enzyme was pre-treated with compounds at room temperature for 30 min, and subsequently incubated with 7-hydroxycoumarinyl arachidonate (7-HCA) as a substrate at room temperature for 1 h. The fluorescence signals were measured on an Envision plate reader (excitation 355 nm, emission 460 nm).

[5] = Stopped-flow kinetic analysis of MAGL tetrazines with eq-5-hydroxy-trans-cyclooctene in MeOH at 25° C.; conditions: for kobs: 0.04 mM tetrazine, 0.40 mM trans-cyclooctene, MeOH; for kobs / krel: 25° C.; for krel: relative to 12, MeOH
Description: Solutions (3 mL) of tetrazines 100a, 100b, 100c and 12 (0.080 mM) was prepared in MeOH. Solutions (3 mL) of eq-5-hydroxy-trans-cyclooctene (0.80 mM) were prepared in MeOH. The reactions between tetrazines and trans-cyclooctene were measured under pseudo-first order conditions using SX 18MV-R stopped-flow spectrophotometer (Applied Photophysics Ltd.). Each solution of tetrazine and trans-cyclooctene were injected in equal volumes via 3 mL syringes into the stopped-flow instrument at 25° C., resulting in final concentration of 0.04 mM of tetrazines and 0.40 mM trans-cyclooctene. The reaction was monitored by the decay of absorbance associated with the tetrazines (10a and 10b at 300 nm, 10c at 280 nm). Reaction were repeated in triplicate. With Prism software, an observed rate constant, kobs, was obtained by nonlinear regression.

[6] = biological target: T2, endogenous MAGL (Homo sapiens, UniProt Q99685); experiment: Labeling of endogenous MAGL in live cells, gel-based ABPP with TCO-TAMRA; assay type: cell-based
T2 sequence (Q99685 1-303): T1 sequence (Q99685 1-303)
Description: Cell culture and probe treatment. Human brain vascular pericytes were cultured in Dulbecco's Modified Eagle Medium/Nutrient Mixture F-12 (DMEM/F-12) GlutaMAX media supplemented with 5% heat-inactivated fetal bovine serum (HI FBS), 1× pericyte growth supplement (PGS), and 1× penicillin-streptomycin at 37° C. with 5% CO2 in a humidified environment. Probe treatment was performed in duplicates. Cells were plated in 6-well plates and cultured overnight in growth media. Live cells were then treated with 300 nM KML29 as a competitor compound (or DMSO as a control) at 37° C. for 1 h. Cells were subsequently treated with probe 9 (0.3 nM-3.2 μM) at 37° C. for 1 h (cells pre-treated with KML29 were treated with 32 nM of probe 9), after which the cells were washed with fresh growth media. The media were then placed with fresh media containing 2 μM of TCO-TAMRA, and the cells were incubated at 37° C. for 30 min. To quench the reaction, the media were replaced with PBS containing 100 μM tetrazine amine, and the cells were washed with cold PBS and harvested with a scrapper. The suspensions were centrifuged at 10,000×g for 1 min at 37° C., and the cell pellets were lysed in PBS containing 0.25% sodium dodecyl sulfate (SDS) with sonication. The protein concentration was measured with a bicinchoninic acid (BCA) assay kit (Thermo Scientific) and normalized. In-gel fluorescence and data analysis. The proteomes were analyzed with 1.0 mm thick 4-12% bis-tris 15-well protein gels in 2-(N-morpholino)ethanesulfonic acid (MES) buffer. The gels were scanned with a Typhoon FLA 9500 Biomolecular Imager (GE Healthcare) with the TAMRA channel with 532 nm excitation and a 575 nm long pass emission filter. To measure the total protein loading, the gels were treated with ClearPage Instant Blue (CBS Scientific) overnight, and after brief destaining with water, scanned with an Odyssey Imager (Li-COR) at the 700 nm channel. The in-gel fluorescence images were processed with ImageJ software (v1.47, NIH), and the intensities were quantified with Image Studio (v5.2, Li-COR) with background subtraction. The coomassie images were processed and quantified with the Image Studio software with background subtraction. For analysis of the cellular potency, the in-gel fluorescence intensities of the two MAGL bands were averaged, normalized with the total coomassie intensity of the corresponding sample, and fitted with a dose-response equation with Prism v7.02 (GraphPad). […] The media were then placed with fresh media containing 2 μM of TCO-TAMRA, and the cells were incubated at 37° C. for 30 min. […] The protein concentration was measured with a bicinchoninic acid (BCA) assay kit (Thermo Scientific) and normalized. In-gel fluorescence and data analysis. […]

[7] = Stopped-flow kinetics of 9 versus 10 with axial 5-hydroxy-trans-cyclooctene in methanol; conditions: 25° C.; for kobs, average rate constant: 0.05 mM tetrazine, 0.5 mM trans-cyclooctene
Description: 0.1 mM solutions (10 mL) in methanol were prepared from stock solutions of 9 (16.3 mg in 632 μL DMF, 50 mM) and 10 (10.0 mg in 422 μL MeOH, 100 mM). A 1.0 mM solution (25 mL) in methanol of axial 5-hydroxy-trans-cyclooctene 11 was also prepared from a stock solution (29.0 mg in 460 μL MeOH, 500 mM). The reaction between tetrazine and a trans-cyclooctene was measured under pseudo-first order conditions using a SX 18MV-R stopped-flow spectrophotometer (Applied Photophysics Ltd.). The 0.1 mM solution of tetrazines 9 or 10 and the 1.0 mM solution of trans-cyclooctene 11 were injected as equal volumes via syringe into the stopped-flow instrument which was held at 25° C., resulting in a final concentration of the tetrazine of 0.05 mM and a final concentration of the trans-cyclooctene of 0.5 mM. The reaction was monitored by the absorbance decay of tetrazine measured at 290 nm. Data points were collected every 0.1 second for 400 seconds and reaction was repeated in triplicate. Prism software was used to obtain the observed rate of each reaction, kobs, which was determined by nonlinear regression analysis resulting in average rate constants of 0.01033 s^−1 for 9 and 0.00975 s^−1 for 10. The relative rate, krel, of 9 versus 10 was thus determined to be 1.06.

logP [2]: 1.2
decomposition per day [3]: 1.7%
SMILES: COC(=O)CCc1nnc(-c2ccoc2)nn1 [5l, methyl 3-(6-(furan-3-yl)-1,2,4,5-tetrazin-3-yl)propanoate]
times less reactive than 5b ([1]; reaction with 5-hydroxyTCO): 2.9 times

decomposition per day [3]: 0.8%
SMILES: C=C(OCC)c1nnc(-c2ccccc2)nn1 [6a, 3-(1-ethoxyvinyl)-6-phenyl-1,2,4,5-tetrazine]
k2, second order rate constant [1]: 2007 ± 101.3 M⁻¹ s⁻¹
kobs ([1]; TCO 0.25 mM): 0.52 s⁻¹
kobs ([1]; TCO 0.30 mM): 0.62 s⁻¹
kobs ([1]; TCO 0.35 mM): 0.70 s⁻¹
kobs ([1]; TCO 0.40 mM): 0.83 s⁻¹
krel [1]: 10

IC50 [4]: 12 nM
SMILES: O=C(OC(C(F)(F)F)C(F)(F)F)N1CCC(CNS(=O)(=O)c2ccc(-c3nnc(-c4ccoc4)nn3)cc2)CC1 [100a, 1,1,1,3,3,3-hexafluoropropan-2-yl 4-((4-(6-(furan-3-yl)-1,2,4,5-tetrazin-3-yl)phenylsulfonamido)methyl)piperidine-1-carboxylate]
kobs [5]: 0.003623 s⁻¹
krel [5]: 3

IC50 [4]: 46 nM
SMILES: C=C(OCC)c1nnc(-c2ccc(S(=O)(=O)NCC3CCN(C(=O)OC(C(F)(F)F)C(F)(F)F)CC3)cc2)nn1 [100b, 1,1,1,3,3,3-hexafluoropropan-2-yl 4-((4-(6-(1-ethoxyvinyl)-1,2,4,5-tetrazin-3-yl)phenylsulfonamido)methyl)piperidine-1-carboxylate]
kobs [5]: 0.031 s⁻¹
krel [5]: 25
fold more reactive than 100a ([5]; stopped flow kinetics with 5-hydroxyTCO): 8.6 fold

competition of probe 9 labeling of MAGL ([6]; probe 9 32 nM 1 h after pre-treatment with KML29 300 nM 1 h): competed
SMILES: O=C(OC(C(F)(F)F)C(F)(F)F)N1CCC(C(O)(c2ccc3c(c2)OCO3)c2ccc3c(c2)OCO3)CC1 [KML29, reference compound]

The remaining lines, values behind:

SMILES: COC(=O)CCc1nncnn1 [4f, methyl 3-(1,2,4,5-tetrazin-3-yl)propanoate]
k2, second order rate constant [1]: 1591 ± 25.74 M⁻¹ s⁻¹
kobs ([1]; TCO 0.25 mM): 0.53 s⁻¹
kobs ([1]; TCO 0.30 mM): 0.61 s⁻¹
kobs ([1]; TCO 0.35 mM): 0.68 s⁻¹
kobs ([1]; TCO 0.40 mM): 0.77 s⁻¹
krel [1]: 8.0

SMILES: COC(=O)CCc1nnc(-c2cccc(C#N)c2)nn1 [5i, methyl 3-(6-(3-cyanophenyl)-1,2,4,5-tetrazin-3-yl)propanoate]
k2, second order rate constant [1]: 69.88 ± 4.824 M⁻¹ s⁻¹
kobs ([1]; TCO 0.25 mM): 0.21 s⁻¹
kobs ([1]; TCO 0.30 mM): 0.24 s⁻¹
kobs ([1]; TCO 0.35 mM): 0.029 s⁻¹
kobs ([1]; TCO 0.40 mM): 0.032 s⁻¹
krel [1]: 0.35

SMILES: Cc1nnc(-c2ccc(-n3ccc(C4CCN(C(=O)OC(C(F)(F)F)C(F)(F)F)CC4)n3)cc2)nn1 [compound 9, 1,1,1,3,3,3-hexafluoropropan-2-yl 4-(1-(4-(6-methyl-1,2,4,5-tetrazin-3-yl)phenyl)-1H-pyrazol-3-yl)piperidine-1-carboxylate]
off-target labeling in live cells ([6]; human brain vascular pericytes, in-gel fluorescence, consistent with ABHD6): labeled an additional protein at ˜35 kDa
IC50 ([6]; human brain vascular pericytes, probe 1 h, then 2 μM TCO-TAMRA 30 min, in-gel fluorescence, read-out: cellular IC50 of MAGL labeling): 8 nM
IC50 [4]: 31 nM
kobs, average rate constant [7]: 0.01033 s⁻¹
krel of 9 versus 10 [7]: 1.1 and 1.06

SMILES: Cc1nnc(-c2ccc(CN)cc2)nn1 [compound 10, 3-methyl-6-(4-aminomethyl)tetrazine, reference compound]
kobs, average rate constant [7]: 0.00975 s⁻¹
